Measurements published in paper PMC12299506, “Flipping the Target: Evaluating Natural LDHA Inhibitors for Selective LDHB Modulation” (Molecules, 2025).

Columns and labels:
LDHB [1] = biological target: T1, LDHB (Homo sapiens, UniProt P07195); assay: LDHB activity assay, 96-well endpoint colorimetric (lactate to pyruvate, NADH/NBT/PMS formazan, 570 nm); assay type: biochemical; details: for IC50: dose-response, nonlinear regression
T1 construct: purchased R&D Systems (Minneapolis, MN, USA) 9205-HB
Text: This assay is based on the detection of NADH generated during the enzymatic conversion of lactate to pyruvate (via reduction of NAD^+), which subsequently reacts with nitro blue tetrazolium (NBT) in the presence of phenazine methosulfate (PMS). This reaction produces a blue-purple formazan dye with a maximum absorbance at approximately 570 nm.
Unless otherwise specified, all chemicals were obtained from Sigma-Aldrich (St. Louis, MO, USA). Recombinant human LDHB (Catalog #: 9205-HB) was purchased from R&D Systems (Minneapolis, MN, USA). […] AXKO-0046 (Catalog #: HY-147216A) was obtained from MedChemExpress (Monmouth Junction, NJ, USA).
This assay quantifies LDHB activity by measuring NADH generation resulting from the conversion of lactate to pyruvate, a reaction catalyzed by LDHB. The produced NADH reacts with nitro blue tetrazolium (NBT) in the presence of phenazine methosulfate (PMS), generating a blue-purple formazan dye detectable at approximately 570 nm.
The reaction was performed in a buffer containing 50 mM CHES (pH 9.6), 150 mM NaCl, 300 μM NBT, 30 μM PMS, and 0.13% gelatin (used to prevent formazan precipitation). Each well was loaded with 90 μL of the reaction buffer followed by 25 μL of a substrate solution comprising 10 mM NAD^+ and 250 mM sodium lactate in the same buffer. Next, 5 μL of the test compound at varying concentrations was added; the buffer alone was used in the control wells. The plates were incubated for 30 s at 25 °C in the dark before measuring the initial absorbance at 570 nm (Ainitial) using a microplate reader (PerkinElmer, Waltham, MA, USA). The reaction was initiated by adding 2 μL of 7.5 μM LDHB. After a 5 min incubation with continuous shaking, a second absorbance measurement (Afinal) was taken.
The difference in absorbance (ΔA570 = Afinal − Ainitial) was used to calculate the amount of NADH produced by referencing a standard curve (0–15 nmol NADH). Readings were corrected for background using a blank lacking LDHB. One unit of enzyme activity was defined as the amount of enzyme producing 1 μmol of NADH per minute at 25 °C. LDHB activity (mU/mL) was calculated using the following Equation (1):(1) LDH activity(mU/mL)=[NADH](nmol)/Tfinal−Tinitial(min)×V(mL)=nmol/min×mL where [NADH] is the amount (in nmol) of NADH that is released between Tfinal and Tinitial, and V is the sample volume (LDHB in mL) added in each well of the 96-well plate.
IC50 values for each compound were calculated using GraphPad Prism v8.0.2 (GraphPad Software Inc., San Diego, CA, USA) by fitting dose–response curves to the enzymatic activity data via nonlinear regression analysis. All the measurements were performed in triplicate.

LDHA [2] = tested on: LDHA; parameters: method as in PMID 34571279; details: EMMA; cited from earlier work
LDHA [3] = tested on: LDHA; parameters: method as in PMID 39054614; details: enzymatic assays; cited from earlier work
LDHB [4] = biological target: T1, LDHB; assay: Effect of pre-incubation time on LDHB inhibition; assay type: biochemical; details: pre-incubation with LDHB for 120 min, compound 50 µM
Method: Supplementary Figure S2. The eﬀect of pre-incubation time on the inhibitory activity of […]
Each compound (50 µΜ) was incubated with […] of LDHB in a 10 µL reaction within a 96-well plate for varying times. The reaction was carried out in 80 µL of 50 mM CHES buﬀer (pH 9.6) containing 150 mM NaCl, 300 µΜ NBT, 30 µΜ PMS, and 0.13% gelatin, with 10 µL of substrate mix (10 mM NAD+ and 250 mM sodium lactate) added to initiate the reaction. LDHB activity was measured as described in the text, with control wells lacking inhibitors. Statistical signiﬁcance was determined using one way ANONA (p < 0.05), with ʹn.s.ʹ indicating non- […]
(1 picture or pasted object on this page, not shown here)

LDHB [5] = biological target: T1, LDHB; assay: LDHB kinetic studies (substrate competition, Michaelis-Menten, mixed-model inhibition); assay type: biochemical; details: for mechanism of LDHB inhibition: Michaelis-Menten analysis, vs lactate and NAD+; for Vmax, NAD+: NAD+ varied, 25 mM sodium lactate; for Vmax, lactate: lactate varied, NAD+ 1 mM; for Ki / α (alpha factor, mechanism of inhibition): mixed-model inhibition fit; for α (alpha factor, mechanism of inhibition): α < 1 uncompetitive
Method: These kinetic studies followed the classical Michaelis–Menten framework. For NAD^+ titration, assays were performed using eight NAD^+ concentrations (120, 240, 360, 480, 700, 900, 1000, and 1200 μM) in the presence of 25 mM sodium lactate. For lactate titration, eight lactate concentrations (2.5, 5, 10, 15, 20, 25, 37.5, and 50 mM) were evaluated with a fixed NAD^+ concentration of 1 mM. Each reaction was carried out with 2.5 nM LDHB and increasing concentrations of either inhibitor (5–100 μM), followed by incubation at room temperature for 6.5 min. Initial reaction velocities were determined and fitted to a nonlinear Michaelis–Menten model to extract apparent kinetic parameters (Km and Vmax) using GraphPad Prism v8.0.2 (GraphPad Software Inc., San Diego, CA, USA). Lineweaver–Burk plots (1/V vs. 1/[S]) were also generated to visualize shifts in enzyme kinetics. To complement these analyses, the data were further examined using a mixed-model inhibition approach within GraphPad Prism. This model, which avoids the distortions associated with reciprocal transformations, evaluates inhibition kinetics using polynomial regression and is governed by the following equations [70]. The mixed-model fit is described by Equations (2)–(4), and contains competitive, uncompetitive, and noncompetitive inhibition terms:(2) Vmaxapp=Vmax/(1+I/a·Ki) (3) Kmapp=Km·(1+I/Ki)/(1+I/a·Ki) (4) Y=Vmaxapp·X/(Kmapp+X)
In the above equations, Vmaxapp and Kmapp are the maximum enzyme activity and Michaelis–Menten constant, respectively, in the presence of an inhibitor; Vmax and Km represent the maximum enzyme velocity and Michaelis–Menten constant, respectively, in the absence of an inhibitor; and Ki is the inhibition constant. In addition, X is the substrate concentration, Y is the enzyme activity, I is the inhibitor concentration, and alpha (α) is a coefficient that defines the mechanism of inhibition.

LDHA [6] = details: cited from earlier work
LDHC = details: cited from earlier work

T1 sequence (P07195 whole entry): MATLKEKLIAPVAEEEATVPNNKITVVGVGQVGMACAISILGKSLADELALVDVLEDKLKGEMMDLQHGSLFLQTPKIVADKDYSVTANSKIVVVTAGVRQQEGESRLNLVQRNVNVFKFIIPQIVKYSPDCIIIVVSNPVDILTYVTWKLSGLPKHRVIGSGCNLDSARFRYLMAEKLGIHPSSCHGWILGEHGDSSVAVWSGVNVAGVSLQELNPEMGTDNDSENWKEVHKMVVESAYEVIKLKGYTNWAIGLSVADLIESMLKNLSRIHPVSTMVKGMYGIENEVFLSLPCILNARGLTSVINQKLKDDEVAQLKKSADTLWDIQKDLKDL

SMILES	inhibition at 50 µM (LDHB [1]; compound at 50 µM)	IC50 (LDHB [1])	inhibition rate of LDHA activity (LDHA [2])	IC50 (LDHA [3])	change of inhibitory effect with longer pre-incubation time (LDHB [4])	mechanism of LDHB inhibition (LDHB [5])	Vmax, NAD+ (LDHB [5]; inhibitor 10 μM)	Vmax, NAD+ (LDHB [5]; inhibitor 20 μM)	Vmax, NAD+ (LDHB [5]; inhibitor 30 μM)	Vmax, NAD+ (LDHB [5]; inhibitor 40 μM)	Vmax, NAD+ (LDHB [5]; inhibitor 50 μM)	Vmax, NAD+ (LDHB [5]; inhibitor 75 μM)	Vmax, NAD+ (LDHB [5]; inhibitor 100 μM)	Vmax, lactate (LDHB [5]; inhibitor 10 μM)	Vmax, lactate (LDHB [5]; inhibitor 20 μM)	Vmax, lactate (LDHB [5]; inhibitor 30 μM)	Vmax, lactate (LDHB [5]; inhibitor 40 μM)	Vmax, lactate (LDHB [5]; inhibitor 50 μM)	Vmax, lactate (LDHB [5]; inhibitor 75 μM)	Vmax, lactate (LDHB [5]; inhibitor 100 μM)	also measured
c1ccc(CNCCc2c(CNC3CCCCCC3)[nH]c3ccccc23)cc1 [AXKO-0046, reference compound]	~75%	0.00556 µM	–	–	–	–	–	–	–	–	–	–	–	–	–	–	–	–	–	–	–
CC[C@@]1(O)C(=O)OCc2c1cc1n(c2=O)Cc2cc3ccccc3nc2-1 [Camptothecin]	–	–	no inhibitory effect	–	–	–	–	–	–	–	–	–	–	–	–	–	–	–	–	–	inhibition of LDHB activity (LDHB [1]; compound at 50 µM): minimal inhibition
O=c1c(O)c(-c2ccc(O)c(O)c2)oc2cc(O)ccc12 [Fisetin]	~22%	–	–	0.066 µM	–	–	–	–	–	–	–	–	–	–	–	–	–	–	–	–	–
O=c1cc(-c2ccc(O)c(O)c2)oc2cc(O)cc(O)c12 [Luteolin]	~55%	32.2 µM	50.7%	1.79 µM	did not increase	uncompetitive inhibition	945 ± 27 mU/mL	868 ± 35 mU/mL	774 ± 32 mU/mL	664 ± 40 mU/mL	563 ± 29 mU/mL	456 ± 27 mU/mL	417 ± 22 mU/mL	942 ± 31 mU/mL	888 ± 16 mU/mL	832 ± 21 mU/mL	749.2 ± 17 mU/mL	624 ± 24 mU/mL	506 ± 15 mU/mL	406 ± 22 mU/mL	Ki (LDHB [5]; with NAD+): 194 µM; α (alpha factor, mechanism of inhibition) (LDHB [5]; with NAD+): 0.34; Ki (LDHB [5]; with lactate): 349 µM; α (alpha factor, mechanism of inhibition) (LDHB [5]; with lactate): 0.21
O=c1c(O)c(-c2ccc(O)c(O)c2)oc2cc(O)cc(O)c12 [Quercetin]	~50%	37.7 µM	53.6%	33.6 µM	did not increase	uncompetitive inhibition	952 ± 36 mU/mL	861 ± 22 mU/mL	761 ± 52 mU/mL	701 ± 44 mU/mL	605 ± 46 mU/mL	504 ± 44 mU/mL	454 ± 33 mU/mL	938 ± 29 mU/mL	881 ± 19 mU/mL	791 ± 37 mU/mL	689 ± 53 mU/mL	621 ± 23 mU/mL	557 ± 37 mU/mL	478 ± 26 mU/mL	Ki (LDHB [5]; with NAD+): 539 µM; α (alpha factor, mechanism of inhibition) (LDHB [5]; with NAD+): 0.14; Ki (LDHB [5]; with lactate): 265 µM; α (alpha factor, mechanism of inhibition) (LDHB [5]; with lactate): 0.31
Cc1cc2c(C(C)C)c(O)c(O)c(C=O)c2c(O)c1-c1c(C)cc2c(C(C)C)c(O)c(O)c(C=O)c2c1O [gossypol, Gossypol]	–	–	–	–	–	–	–	–	–	–	–	–	–	–	–	–	–	–	–	–	Ki (LDHA [6]): 1.9 µM; Ki (LDHC): 4.2 µM
